One data set concerns the target Nav 1.7 (Homo sapiens (Human), UniProt Q15858). The data set can be described thus: in-vitro Nav 1.7 PX data. Format: cell-based. To be noted: in-vitro PX data.
In the next data set the target is Nav 1.5 (Homo sapiens (Human), UniProt Q14524). Kind of data set: in-vitro Nav 1.5 PX data. To be noted: read-out: Nav 1.5 PX IC50; in-vitro PX data.
Sequence of Nav 1.5 (Q14524 whole entry): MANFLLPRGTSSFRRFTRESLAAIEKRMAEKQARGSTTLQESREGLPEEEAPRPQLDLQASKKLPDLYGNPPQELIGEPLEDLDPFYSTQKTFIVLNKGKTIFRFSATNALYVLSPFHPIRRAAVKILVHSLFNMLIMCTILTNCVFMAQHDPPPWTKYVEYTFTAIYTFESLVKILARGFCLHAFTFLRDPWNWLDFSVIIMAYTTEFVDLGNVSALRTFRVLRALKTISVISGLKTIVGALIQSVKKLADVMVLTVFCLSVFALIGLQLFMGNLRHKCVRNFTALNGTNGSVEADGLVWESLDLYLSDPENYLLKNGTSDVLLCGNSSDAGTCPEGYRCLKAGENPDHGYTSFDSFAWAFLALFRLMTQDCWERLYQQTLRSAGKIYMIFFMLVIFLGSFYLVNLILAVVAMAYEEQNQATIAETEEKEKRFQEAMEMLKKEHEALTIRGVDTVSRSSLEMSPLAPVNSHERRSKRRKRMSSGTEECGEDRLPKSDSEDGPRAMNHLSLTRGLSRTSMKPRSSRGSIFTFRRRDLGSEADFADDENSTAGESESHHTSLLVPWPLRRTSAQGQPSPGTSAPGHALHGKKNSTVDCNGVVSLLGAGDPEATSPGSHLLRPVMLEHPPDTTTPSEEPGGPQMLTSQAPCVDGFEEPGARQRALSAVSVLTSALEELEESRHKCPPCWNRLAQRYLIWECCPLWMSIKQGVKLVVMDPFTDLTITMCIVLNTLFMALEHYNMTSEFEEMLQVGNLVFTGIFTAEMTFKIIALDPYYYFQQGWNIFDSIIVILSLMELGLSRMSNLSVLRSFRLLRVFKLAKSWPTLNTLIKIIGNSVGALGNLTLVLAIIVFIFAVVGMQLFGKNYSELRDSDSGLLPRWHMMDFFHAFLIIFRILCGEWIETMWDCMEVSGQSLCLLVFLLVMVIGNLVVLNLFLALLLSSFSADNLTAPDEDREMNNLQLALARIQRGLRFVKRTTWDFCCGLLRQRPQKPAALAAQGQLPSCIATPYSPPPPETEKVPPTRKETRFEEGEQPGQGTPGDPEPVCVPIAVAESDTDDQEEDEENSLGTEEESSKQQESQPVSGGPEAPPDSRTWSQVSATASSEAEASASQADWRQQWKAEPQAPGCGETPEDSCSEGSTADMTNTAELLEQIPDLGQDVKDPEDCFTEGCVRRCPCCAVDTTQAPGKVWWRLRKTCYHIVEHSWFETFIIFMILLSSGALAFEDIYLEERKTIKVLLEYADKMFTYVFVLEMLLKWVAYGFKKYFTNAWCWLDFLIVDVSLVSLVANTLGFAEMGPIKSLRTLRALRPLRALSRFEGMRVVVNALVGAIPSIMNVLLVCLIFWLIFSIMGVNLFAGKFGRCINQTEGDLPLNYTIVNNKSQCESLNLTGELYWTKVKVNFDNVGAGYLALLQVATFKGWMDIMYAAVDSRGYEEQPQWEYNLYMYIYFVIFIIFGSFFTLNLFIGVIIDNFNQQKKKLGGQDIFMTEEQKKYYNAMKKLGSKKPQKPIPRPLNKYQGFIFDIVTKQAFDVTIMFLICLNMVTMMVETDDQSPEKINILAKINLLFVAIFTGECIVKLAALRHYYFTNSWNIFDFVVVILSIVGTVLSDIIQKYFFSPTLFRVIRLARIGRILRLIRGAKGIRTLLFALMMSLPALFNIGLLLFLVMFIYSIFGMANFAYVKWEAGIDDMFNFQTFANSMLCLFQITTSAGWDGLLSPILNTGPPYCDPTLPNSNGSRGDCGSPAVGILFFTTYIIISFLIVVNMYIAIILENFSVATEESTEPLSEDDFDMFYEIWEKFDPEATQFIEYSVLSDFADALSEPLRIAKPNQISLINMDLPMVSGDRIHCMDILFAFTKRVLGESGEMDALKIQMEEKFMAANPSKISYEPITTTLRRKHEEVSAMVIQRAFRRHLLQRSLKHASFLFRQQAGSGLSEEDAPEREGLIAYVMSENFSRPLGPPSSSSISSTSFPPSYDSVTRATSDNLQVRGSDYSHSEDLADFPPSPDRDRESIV

Sequence of Nav 1.7 (Q15858 whole entry): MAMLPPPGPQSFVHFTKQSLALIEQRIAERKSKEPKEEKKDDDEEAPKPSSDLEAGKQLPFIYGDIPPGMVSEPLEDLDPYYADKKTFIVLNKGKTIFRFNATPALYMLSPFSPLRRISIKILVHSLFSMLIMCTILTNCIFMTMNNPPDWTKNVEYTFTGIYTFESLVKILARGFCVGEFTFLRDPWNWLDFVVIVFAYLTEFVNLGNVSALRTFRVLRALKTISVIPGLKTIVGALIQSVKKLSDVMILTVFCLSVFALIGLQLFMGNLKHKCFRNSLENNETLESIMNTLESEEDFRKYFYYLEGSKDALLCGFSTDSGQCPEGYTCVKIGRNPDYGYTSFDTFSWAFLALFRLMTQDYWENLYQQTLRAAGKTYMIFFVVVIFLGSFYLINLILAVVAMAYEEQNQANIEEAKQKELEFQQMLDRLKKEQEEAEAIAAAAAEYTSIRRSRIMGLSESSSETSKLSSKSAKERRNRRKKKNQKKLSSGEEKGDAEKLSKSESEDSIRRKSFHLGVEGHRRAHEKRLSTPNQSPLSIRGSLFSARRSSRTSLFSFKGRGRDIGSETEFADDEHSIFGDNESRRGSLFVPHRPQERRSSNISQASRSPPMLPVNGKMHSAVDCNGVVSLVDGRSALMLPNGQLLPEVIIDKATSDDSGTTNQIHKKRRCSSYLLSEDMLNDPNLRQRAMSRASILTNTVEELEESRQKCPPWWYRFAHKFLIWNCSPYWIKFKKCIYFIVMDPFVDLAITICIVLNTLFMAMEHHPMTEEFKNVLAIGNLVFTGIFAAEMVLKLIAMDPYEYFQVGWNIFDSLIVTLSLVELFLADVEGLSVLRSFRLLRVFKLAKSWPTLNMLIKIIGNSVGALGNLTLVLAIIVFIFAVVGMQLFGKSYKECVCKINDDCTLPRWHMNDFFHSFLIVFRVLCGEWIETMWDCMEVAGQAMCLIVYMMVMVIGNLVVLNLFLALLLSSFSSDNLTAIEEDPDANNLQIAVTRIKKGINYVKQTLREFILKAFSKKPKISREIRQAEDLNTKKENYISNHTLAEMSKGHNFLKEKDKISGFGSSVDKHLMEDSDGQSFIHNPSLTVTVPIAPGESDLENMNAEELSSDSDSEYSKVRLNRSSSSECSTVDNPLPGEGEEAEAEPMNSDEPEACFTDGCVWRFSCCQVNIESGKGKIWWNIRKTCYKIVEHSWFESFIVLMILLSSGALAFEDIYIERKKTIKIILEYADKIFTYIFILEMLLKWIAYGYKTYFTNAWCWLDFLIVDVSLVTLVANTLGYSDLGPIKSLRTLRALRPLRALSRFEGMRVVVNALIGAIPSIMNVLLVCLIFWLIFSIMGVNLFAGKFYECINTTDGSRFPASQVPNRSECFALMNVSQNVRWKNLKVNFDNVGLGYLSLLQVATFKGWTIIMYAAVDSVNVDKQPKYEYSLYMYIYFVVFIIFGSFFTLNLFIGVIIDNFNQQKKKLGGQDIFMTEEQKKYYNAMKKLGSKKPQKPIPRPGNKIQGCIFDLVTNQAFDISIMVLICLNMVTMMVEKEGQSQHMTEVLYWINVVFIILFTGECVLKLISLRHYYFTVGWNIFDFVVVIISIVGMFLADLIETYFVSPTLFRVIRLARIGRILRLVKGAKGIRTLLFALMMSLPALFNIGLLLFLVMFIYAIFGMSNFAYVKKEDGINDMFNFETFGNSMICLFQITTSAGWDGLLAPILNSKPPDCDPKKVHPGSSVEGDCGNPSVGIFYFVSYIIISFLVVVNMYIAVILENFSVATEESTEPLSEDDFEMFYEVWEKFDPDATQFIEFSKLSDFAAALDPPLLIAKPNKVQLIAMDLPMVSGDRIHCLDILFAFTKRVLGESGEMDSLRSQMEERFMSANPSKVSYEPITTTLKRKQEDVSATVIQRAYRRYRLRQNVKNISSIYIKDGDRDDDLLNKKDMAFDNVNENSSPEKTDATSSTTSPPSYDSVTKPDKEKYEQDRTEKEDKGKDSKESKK

Usually IC50 stands for the concentration at which inhibition is half-maximal. As for `COc1cc(-c2cccc(F)c2)c(Cl)cc1-c1nncc2cc(S(=O)(=O)Nc3ccon3)ccc12` [Example 10, 1-(2-CHLORO-3′-FLUORO-5-METHOXY-[1,1′-BIPHENYL]-4-YL)-N-(ISOXAZOL-3-YL)PHTHALAZINE-6-SULFONAMIDE], the IC50 is 0.0841 µM against Nav 1.7 and > 10 µM on Nav 1.5.

(Values after patent publication US9776995B2, “Bicyclic sulfonamide compounds as sodium channel inhibitors” (AMGEN INC., priority 2013, dated 2017).)
